{"source": "patent US20080188447A1", "about": "“Glucocorticoid-lowering composition” (priority 2007, published 2008)", "test": "Daily food intake with subcutaneous steroid supplementation (Example 3)", "format": "in vivo, rat", "settings": "group C (oral corn oil vehicle, no extract), steroid 5 mg/kg/day sc on days 4 and 5", "method": "Male Wistar rats weighing about 250 g (2 groups designated as group C, control; and E, experimental treatment; 24 individuals per group) were kept as described in the Example 1 from day 1 to day 6 of the experiment. On days 1 through 4, a botanical extract from a plant Asclepias incarnata enriched with pregnane derivatives according to Formula (I) was administered orally in doses of 100 mg/kg body weight/day in 1 ml of corn oil (Sigma #C8267). As a negative control (vehicle), animals were administered orally with 1 ml of corn oil alone. On day 4 of the experiment both groups of animals C and E were further subdivided into 6 groups containing 4 animals each, designated C, control; PREG, pregnenolone; PROG, progesterone; DEOX, deoxycorticosterone; CORT, corticosterone; and DHEA, dehydroepiandrosterone. On day 4 and day 5, animals from these subgroups received a subcutaneous injection of 5 mg/kg body weight/day of the respective steroid compound in 5% DMSO and corn oil; total volume of 0.1 ml. The control animals in group C subgroup C and group E subgroup C received a subcutaneous injection of vehicle (5% DMSO in corn oil) only. On days 4 and 6 food intake was measured. […]", "data": [{"smiles": "C[C@]12C[C@H](O)[C@H]3[C@@H](CCC4=CC(=O)CC[C@@]43C)[C@@H]1CC[C@@H]2C(=O)CO", "note": "[CORT, corticosterone]", "values": [{"measurement": "Daily food intake, Day 6", "result": "no direct effect on food intake alone"}]}]}
